Test results published in ChEMBL document CHEMBL1130624, “In vitro inhibitory effects of DNA topoisomerase II by fernane-type triterpenoids isolated from a Euphorbia genus” (Bioorg Med Chem Lett, 1998).
Blank lines part the entries; values can stand above or below the molecule they belong to. Activity calls are given as the source filed them. The rule behind the calls is not given here.

Assays:
Assay type in all cases: protein assay
[1] = target: T1, DNA topoisomerase II (Homo sapiens) (UniProt P11388+Q02880); assay: Compound was tested in vitro for inhibitory effect on DNA topoisomerase II activity at a concentration of 100 uM; No inhibition
[2] = target: T1, DNA topoisomerase II (Homo sapiens); assay: Compound was tested in vitro for inhibitory effect on DNA topoisomerase II activity at a concentration of 25 uM; […]
[3] = target: T1, DNA topoisomerase II (Homo sapiens); assay: Compound was tested in vitro for inhibitory effect on DNA topoisomerase II activity at a concentration of 6.3 uM; Slight inhibition
[4] = target: T1, DNA topoisomerase II (Homo sapiens); assay: Compound was tested in vitro for inhibitory effect on DNA topoisomerase II activity at a concentration of 12.5 uM; Evidence inhibition
[5] = target: T1, DNA topoisomerase II (Homo sapiens); assay: Compound was tested in vitro for inhibitory effect on DNA topoisomerase II activity at a concentration of 3.2 uM; No inhibition
[6] = target: T1, DNA topoisomerase II (Homo sapiens); assay: Compound was tested in vitro for inhibitory effect on DNA topoisomerase II activity at a concentration of 100 uM; […]
[7] = target: T1, DNA topoisomerase II (Homo sapiens); assay: Compound was tested in vitro for inhibitory effect on DNA topoisomerase II activity at a concentration of 50 uM; […]
[8] = target: T1, DNA topoisomerase II (Homo sapiens); assay: Compound was tested in vitro for inhibitory effect on DNA topoisomerase II activity at a concentration of 50 uM; Slight inhibition
[9] = target: T1, DNA topoisomerase II (Homo sapiens); assay: Compound was tested in vitro for inhibitory effect on DNA topoisomerase II activity at a concentration of 12.5 uM; No inhibition
[10] = target: T1, DNA topoisomerase II (Homo sapiens); assay: Compound was tested in vitro for inhibitory effect on DNA topoisomerase II activity at a concentration of 6.3 uM; No inhibition
[11] = target: T1, DNA topoisomerase II (Homo sapiens); assay: Compound was tested in vitro for inhibitory effect on DNA topoisomerase II activity at a concentration of 100 uM; Evidence inhibition
[12] = target: T1, DNA topoisomerase II (Homo sapiens); assay: Compound was tested in vitro for inhibitory effect on DNA topoisomerase II activity at a concentration of 25 uM; No inhibition

SMILES: C=C(C)[C@@H]1CC[C@@H]2C(=CC[C@@]3(C)[C@@H]4CC[C@H](C(C)C)[C@@]4(C)CC[C@]23C)[C@@]1(C)CCC(=O)OC
Activity [1]: inactive

SMILES: C=C(C)[C@@H]1CC[C@@H]2C(=CC[C@@]3(C)[C@@H]4CC[C@H](C(C)C)[C@@]4(C)CC[C@]23C)[C@@]1(C)CCC(=O)OCc1ccccc1
Activity [8]: Slight inhibition
Activity [9]: inactive
Activity [5]: inactive
Activity [10]: inactive
Activity [11]: Evidence inhibition
Activity [12]: inactive

SMILES: C=C(C)[C@@H]1CC[C@@H]2C(=CC[C@@]3(C)[C@@H]4CC[C@H](C(C)C)[C@@]4(C)CC[C@]23C)[C@@]1(C)CCC(=O)O
Activity [2]: Slight inhibition
Activity [3]: Slight inhibition
Activity [4]: Evidence inhibition
Activity [5]: inactive
Activity [6]: Slight inhibition
Activity [7]: Slight inhibition

SMILES: COc1cc([C@@H]2c3cc4c(cc3[C@@H](O[C@@H]3O[C@@H]5CO[C@@H](C)O[C@H]5[C@H](O)[C@H]3O)[C@H]3COC(=O)[C@H]23)OCO4)cc(OC)c1O
Activity [8]: Slight inhibition
Activity [9]: inactive
Activity [5]: inactive
Activity [10]: inactive
Activity [11]: Evidence inhibition
Activity [12]: inactive

Second part, the molecule after the results:

Activity [1]: inactive
SMILES: CC(C)[C@H]1CC[C@@H]2[C@]1(C)CC[C@]1(C)C3=C(C(=O)C[C@@]21C)[C@@]1(C)CC[C@H](O)C(C)(C)C1CC3=O (some centres undefined)

Activity [2]: Slight inhibition
Activity [3]: Slight inhibition
Activity [4]: Evidence inhibition
Activity [5]: inactive
Activity [6]: Slight inhibition
Activity [7]: Slight inhibition
SMILES: C=C(C)[C@@H]1CC[C@@H]2C(=CC[C@@]3(C)[C@@H]4CC[C@H](C(C)C)[C@@]4(C)CC[C@]23C)[C@@]1(C)CCCO

Activity [1]: inactive
SMILES: CC(C)[C@H]1CC[C@@H]2[C@]1(C)CC[C@]1(C)C3=C(CC[C@@]21C)[C@@]1(C)CC[C@H](O)C(C)(C)C1CC3 (some centres undefined)

Activity [1]: inactive
SMILES: CC(C)[C@H]1CC[C@@H]2[C@]1(C)CC[C@]1(C)C3=C(C(=O)C[C@@]21C)[C@@]1(C)CC[C@H](O)C(C)(C)C1C[C@@H]3O (some centres undefined)

Activity [1]: inactive
SMILES: CC(C)[C@H]1CC[C@@H]2[C@]1(C)CC[C@]1(C)C3=C([C@H](O)C[C@@]21C)[C@@]1(C)CC[C@H](O)C(C)(C)C1CC3=O (some centres undefined)
